Measurements: patent US20210358575A1, “A METHOD FOR DETERMINING THE EFFICACY OF TREATMENT WITH A COMBINATION OF DRUGS IN A SUBJECT DIAGNOSED WITH A DISEASE AND A METHOD FOR CLASSIFYING THE UTILITY OF DRUG COMBINATIONS IN TREATMENT OF SAID SUBJECT” (priority 2018, published 2021)

What was measured:
[1] = test system: live pathological cells (LPC) in bone marrow samples of AML patients; assay: PharmaFlow PM test: ex vivo drug sensitivity of whole bone marrow samples, population pharmacodynamic models; format: cell-based, human; details: typical population value
Procedure: Ex vivo drug sensitivity analysis was made using the PharmaFlow platform (previously termed ExviTech®) maintaining the bone marrow (BM) microenvironment. A minimum BM sample volume between one and two mL was collected by aspiration at AML diagnosis, before starting induction chemotherapy, and was processed by an automated method 24 hours after extraction. Samples were incubated with CYT, IDA and/or CYT+IDA for 48 hours. A more detailed description of the procedure has been published elsewhere (Bennett, et al 2014).
Evaluation of drug response was done by counting the number of live pathological cells (LPC) remaining after incubation at increasing drug concentrations (Upton and Mould 2014). Dying cells (apoptosis) were excluded using Annexin V-FITC. Pharmacological responses were analyzed using PD population-based models (Upton and Mould 2014) which essentially perform the fitting of the dependent variable (natural log of LPC) in a non-linear mixed-effects model to derive typical population values (fixed effects) and the magnitude of inter-patient and residual variability (random effects).
Model development was performed with the first-order conditional estimation method using interaction option with the software NONMEM (v7.2) (Beal, et al 1989-2001), according to the following equation: […]
Where LPC0 (LCTi0) parameter refers to the number of LPC (LCTi) after incubation in the absence of drug, Emax represents the maximum fractional decrease in LPC that the drug can elicit, EC50, is the drug concentration exerting half of Emax, and γ is the parameter governing the steepness of the LPC vs drug concentration (C) curve. For interaction analysis a Surface Interaction model (Greco, et al 1995) was used to estimate the degree of synergy, referred as a parameter, between both drugs. Interpatient variability (IPV) associated to all parameters was described by means of an exponential model of the components of variance. An additive error structure was used for the residual variability. Population PD models were built with bone marrow (BM) samples from 473 patients that were incubated with CYT, 456 with IDA and 443 with CYT+IDA. Bayesian estimation methods were then used to retrieve individual patient parameters based on their available exposure-response measurements in conjunction with the PD population parameters.
Individual response profiles normalized with respect to LPC0 (LCTi0), were integrated between the concentration points corresponding to the 20th and 80th percentiles of the distribution of estimated individual EC50 values, to obtain the values of the areas under the curves (AUCs) that were used as a descriptor of the ex vivo drug effect (i.e. the higher the AUC, the lower the cytotoxic effect (efficacy or potency) of the drug.

[2] = test system: first-line AML patients treated with CYT+IDA; assay: Validation of PM Test score vs clinical response in 112 first-line AML samples; format: in vivo, human; details: 112 AML patients treated with CYT+IDA
Excerpt: The Precision Medicine (PM) Test as described ranks treatments by a score that estimates the activity of each treatment across a population of patient samples. Higher score represents more ex vivo sensitivity to treatment, while lower score represents less ex vivo sensitivity to treatment, i.e. more ex vivo resistance. A particular format of the results of the PM Test is shown in FIG. 19, panels A and B, wherein the ranking of treatments by activity score from 100%=best to 0%=worst is shown (score may be represented graphically using a colour/tone gradient or categorisation). The following 3 categories are identified:
To validate the predictive power of these PM Test score results, the set of 123 samples treated homogeneously with CYT+IDA that were used in the correlation study of Example 1 were employed. Only 112 samples were used for validation. To evaluate the predictive power of the PM Test score, in the format shown in FIG. 19, panel A referring to a sensitive patient we can only use patients predicted to be sensitive or resistant. Treatments having intermediate scores are not considered sufficiently strong to predict any response. In the case of intermediate scores, other factors such as pharmacokinetics may be more important than the score. On the other hand, extreme scores are more likely to prevail over other factors such as pharmacokinetics.
The set of data of 112 patients treated with CYT+IDA represents a 1st line treatment of AML with a 72% response rate. This means that 72% of these 112 patients achieved Complete Remission (CR) clinically. The majority of patients were sensitive, with fewer resistant patients. Thus, the statistics are improved by calculating the % of cases in which the PM Test score predicted patients to be sensitive to the ex vivo treatment. This means selecting only the treatments to which the patient is expected to be very sensitive, with scores between 80-100%. The % of accurate prediction of sensitive (responsive) patients is referred as the Negative Predicted Value (NPV).
Samples whose score are between this variable threshold and 100% are analysed and predicted as sensitive because they have the top score. The results are shown for the monotherapies CYT and IDA, and for the combination treatment. Focus was placed on the combination treatment CYT+IDA that was administered to patients. Columns 8 to 10 of Table 4 show the results for the combined treatment CYT+IDA for different thresholds. The lowest threshold 55%, which means between 55 and 100%, identifies 93 out of the 112 samples, that would be predicted as sensitive. […] Thus, the prediction accuracy or NPV is 77/93=82.8%. As the threshold is increased (descending the 1st column of Table 4), the range of scores included is narrowed because the maximum is always 100%. Consequently, as the threshold is increased, the total number of samples included diminishes, reaching 0 samples at 100% (100-100%) and 18 samples at 95%. The decrease can be observed in the number of either sensitive or resistant samples (descending columns 8 and 9 of Table 4). […] Thus, the higher the score, the better the prediction (moreover, the intermediate sensitivity values provide less accurate prediction than the extreme values).

[3] = test system: bone marrow samples of acute lymphoid leukemia (ALL) patients; assay: Ex vivo test of single drugs, EC50 compared with population distribution, acute lymphoid leukemia samples; format: cell-based, human
Procedure: (§1) Bone marrow samples were obtained from three adult patients diagnosed with MM (VIVIA-PMMM010431, VIVIA-PMMM060111 and VIVIA-PMMM130061) and three adult patients diagnosed with ALL (VIVIA-PMALL07002, VIVIA-PMALL04001 and VIVIA-PMALL09001). Following the same experimental design as described for examples 1 and 3, said bone marrow samples were incubated for 48 h in well plates containing the single drugs shown in FIGS. 21 to 26. After the measurement of pathological populations by flow cytometry, pharmacological response parameters were estimated using population pharmacodynamic models. The most representative parameter of drug potency, the EC50, was used for a comparative analysis of the results provided by said bone marrow samples with respect to the statistical distribution of the same parameter observed in a population of samples and stored in the database. Such populations varied in size depending on the drug, being always over one hundred individuals in the case of MM and between 15 and 21 individuals in the case of ALL.

[4] = test system: bone marrow samples of multiple myeloma (MM) patients; assay: Ex vivo test of single drugs, EC50 compared with population distribution, multiple myeloma samples; format: cell-based, human
Procedure: as §1

[5] = ALL second line patient VIVIA-PMALL04001, 48 h
[6] = MM patient VIVIA-PMMM010431, 48 h
[7] = MM patient VIVIA-PMMM130061, 48 h
[8] = MM patient VIVIA-PMMM060111, 48 h
[9] = ALL patient VIVIA-PMALL07002, 48 h
[10] = ALL patient VIVIA-PMALL09001, 48 h

## Nc1ccn([C@@H]2O[C@H](CO)[C@@H](O)[C@@H]2O)c(=O)n1 [Cytarabine, cytarabine]
[1]; Homo sapiens, AML bone marrow samples, 48 h incubation
  EC50: 6.94 µM
[1]; set to 1 in the model, 48 h
  EMAX (maximum fractional decrease in LPC): 1
[1]; 48 h
  γ (steepness of LPC vs concentration curve): 0.684
[2]; PM Test score ≥55
  % Sens. (percentage of patients sensitive to therapy, NPV): 84.8%
  Res. (number of patients resistant to therapy): 14
  Sens. (number of patients sensitive to therapy): 78
[2]; PM Test score ≥60
  % Sens. (percentage of patients sensitive to therapy, NPV): 85.7%
  Res. (number of patients resistant to therapy): 13
  Sens. (number of patients sensitive to therapy): 78
[2]; PM Test score ≥65
  % Sens. (percentage of patients sensitive to therapy, NPV): 85.4%
  Res. (number of patients resistant to therapy): 13
  Sens. (number of patients sensitive to therapy): 76
[2]; PM Test score ≥70
  % Sens. (percentage of patients sensitive to therapy, NPV): 85.1%
  Res. (number of patients resistant to therapy): 13
  Sens. (number of patients sensitive to therapy): 74
[2]; PM Test score ≥75
  % Sens. (percentage of patients sensitive to therapy, NPV): 86.1%
  Res. (number of patients resistant to therapy): 11
  Sens. (number of patients sensitive to therapy): 68
[2]; PM Test score ≥80
  % Sens. (percentage of patients sensitive to therapy, NPV): 86.1%
  Res. (number of patients resistant to therapy): 10
  Sens. (number of patients sensitive to therapy): 62
[2]; PM Test score ≥85
  % Sens. (percentage of patients sensitive to therapy, NPV): 87.1%
  Res. (number of patients resistant to therapy): 8
  Sens. (number of patients sensitive to therapy): 54
[2]; PM Test score ≥90
  % Sens. (percentage of patients sensitive to therapy, NPV): 85.2%
  Res. (number of patients resistant to therapy): 8
  Sens. (number of patients sensitive to therapy): 46
[2]; PM Test score ≥95
  % Sens. (percentage of patients sensitive to therapy, NPV): 83.7%
  Res. (number of patients resistant to therapy): 7
  Sens. (number of patients sensitive to therapy): 36
[2]; PM Test score ≥100
  Res. (number of patients resistant to therapy): 0
  Sens. (number of patients sensitive to therapy): 0
[3]; [5]
  ex vivo activity: intermediate-low activity

## Cn1c(CCCC(=O)O)nc2cc(N(CCCl)CCCl)ccc21 [bendamustine]
[4]; [6]
  EC50 relative to population distribution: below the 10th percentile
  ex vivo activity: potent activity
[4]; [7]
  ex vivo activity: very weak activity

## CC(C)C[C@H](NC(=O)[C@H](Cc1ccccc1)NC(=O)c1cnccn1)B(O)O [bortezomib]
[4]; [6]
  EC50 relative to population distribution: below the first quartile
  ex vivo activity: potent activity
[4]; [8]
  ex vivo activity: intermediate activity
[4]; [7]
  ex vivo activity: very weak activity

## O=P1(N(CCCl)CCCl)NCCCO1 (stereo not shown) [cyclophosphamide]
[3]; [9]
  ex vivo activity: intermediate or high activity

## COc1cccc2c1C(=O)c1c(O)c3c(c(O)c1C2=O)C[C@@](O)(C(C)=O)C[C@@H]3O[C@H]1C[C@H](N)[C@H](O)[C@H](C)O1 [daunorubicin]
[3]; [9]
  ex vivo activity: intermediate or high activity
[3]; [10]
  ex vivo activity: high activity
[3]; [5]
  ex vivo activity: low activity or resistance

## C[C@@H]1C[C@H]2[C@@H]3CCC4=CC(=O)C=C[C@]4(C)[C@@]3(F)[C@@H](O)C[C@]2(C)[C@@]1(O)C(=O)CO [dexamethasone]
[4]; [8]
  ex vivo activity: no activity

## O=C1c2c(O)ccc(O)c2C(=O)c2c(NCCNCCO)ccc(NCCNCCO)c21 [mitoxantrone]
[3]; [5]
  ex vivo activity: low activity or resistance

## C[C@]12C=CC(=O)C=C1CC[C@@H]1[C@@H]2[C@@H](O)C[C@@]2(C)[C@H]1CC[C@]2(O)C(=O)CO [prednisolone]
[4]; [6]
  EC50 relative to population distribution: below the 10th percentile
  ex vivo activity: potent activity
[3]; [9]
  ex vivo activity: intermediate or high activity
[3]; [10]
  ex vivo activity: high activity

## O=C1CCC(N2C(=O)c3ccccc3C2=O)C(=O)N1 (stereo not shown) [thalidomide]
[4]; [7]
  ex vivo activity: very weak activity

## CC[C@]1(O)C[C@H]2CN(CCc3c([nH]c4ccccc34)[C@@](C(=O)OC)(c3cc4c(cc3OC)N(C=O)[C@H]3[C@@](O)(C(=O)OC)[C@H](OC(C)=O)[C@]5(CC)C=CCN6CC[C@]43[C@@H]65)C2)C1 [vincristine]
[3]; [9]
  ex vivo activity: intermediate or high activity
[3]; [10]
  ex vivo activity: high activity
[3]; [5]
  ex vivo activity: low activity or resistance

## L-asparaginase
[3]; [9]
  ex vivo activity: intermediate or high activity
